Laboratory results as given in patent publication US20250170082A1, “HPDL INHIBITORS AND USES THEREOF” (NEW YORK UNIVERSITY, priority 2022, published 2025).
pIC50: −log10 of the molar value. Entries after “also recorded” stand apart in the source; their conditions may differ. One block for each compound: values may come before it.

Key:
[1] = molecular target: T1, human His-tagged HPDL (4-hydroxyphenylpyruvate dioxygenase-like), recombinant, from expiSF9 insect cells (Homo sapiens, UniProt Q96IR7); test: Inhibition of HPDL activity: His-tagged HPDL incubated with HPPA at various inhibitor concentrations, 4HMA production followed by GC-MS; format: biochemical
T1 construct: His tag; made in house; host or cells: expiSF9 insect cells (virus infection)
T1 sequence (Q96IR7 1-371): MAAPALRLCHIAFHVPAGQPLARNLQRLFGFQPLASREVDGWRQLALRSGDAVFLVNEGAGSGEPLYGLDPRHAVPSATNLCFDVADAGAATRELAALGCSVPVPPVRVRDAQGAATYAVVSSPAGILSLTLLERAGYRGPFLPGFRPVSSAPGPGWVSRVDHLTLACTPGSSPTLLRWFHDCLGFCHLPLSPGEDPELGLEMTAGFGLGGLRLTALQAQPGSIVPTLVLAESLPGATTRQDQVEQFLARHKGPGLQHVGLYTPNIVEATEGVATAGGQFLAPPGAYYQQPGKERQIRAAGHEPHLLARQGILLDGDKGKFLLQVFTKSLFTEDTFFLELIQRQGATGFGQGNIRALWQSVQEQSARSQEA
Source text: The four curves in Panel (A) represent dose-response curves for, from left to right, ibuprofen, dopamine, montelukast, and methyldopa, respectively.
A culture of expiSF9 cells (5×10^6 viable cells/mL and ≥90% viability) were infected with high-titer virus (human His-tagged HPDL).

C57BL/6 pups = test: Pup survival after daily oral gavage; format: in vivo
[2] = test system: MIAPACA2 expressing control or HPDL sgRNA; test: 3D growth assay in MIAPACA2 expressing control or HPDL sgRNA, with or without coHPDL; format: cell-based; settings: ibuprofen 100 uM added daily, 3 days
Procedure: This experiment evaluates if HPDL inhibition in cells is responsible for the decrease of cell growth in 3D. […] 2,500 cells were seeded into a low-attachment 96-well plate containing DMEM+10% dialysed FBS and 3% Matrigel. […] To measure 3D growth with the CyQUANT Cell Proliferation Assay kit, plates were frozen at −80° C., thawed at room temperature, and equal volumes of 2× CyQUANT reagent+lysis buffer was added to the wells. Wells containing medium and no cells were used as blanks.

[3] = test system: MIAPACA2 and PATU8902 xenografts; test: PDAC pancreas orthotopic xenografts in athymic nude mice; format: in vivo
Procedure: Pancreas orthotopic xenografts were established as follows. In brief, 6-week-old female immunocompromised athymic nude mice (CrTac:NCr-Foxnlnu) were orthotopically injected with tumor cells into the pancreas. Mice were anaesthetized with ketamine (120 mg kg−1) and xylazine (10 mg kg−1) before surgery. MIAPACA2 or PATU-8902 ([…]) were suspended in 20 μl of 50% growth factor-reduced Matrigel (BD Science), and injected into the pancreas. Mice were treated with buprenorphine every 12 h after surgery for 48 h. […] Both compounds were dissolved into mice water every day to avoid degradation. Mice were sacrificed when tumor development led to significant deterioration of their condition.

His-tagged HPDL = molecular target: T2, His-tagged HPDL (Homo sapiens, UniProt Q96IR7); settings: for compound amount at 50% activity level (rank among the four dose-response curves): FIG. 4(A) dose-response curves
T2 sequence (Q96IR7 1-371): T1 sequence (Q96IR7 1-371)

MIAPACA2 cells = test: 3D growth assay (CyQUANT) in MIAPACA2 cells, ibuprofen vs aspirin; format: cell-based; settings: 100 uM added daily, 3 days
Procedure: This experiment evaluates if COX inhibition is responsible for the decrease of cell growth in 3D. The ability of aspirin, another COX inhibitor, to affect cell growth of HPDL-dependent cell lines in 3D was evaluated. 2,500 cells were seeded into a low-attachment 96-well plate containing DMEM+10% dialysed FBS and 3% Matrigel. […] To measure 3D growth with the CyQUANT Cell Proliferation Assay kit, plates were frozen at −80° C., thawed at room temperature, and equal volumes of 2× CyQUANT reagent+lysis buffer was added to the wells. Wells containing medium and no cells were used as blanks.

[4] = test system: MIAPACA2 and PATU-8902 cells; test: 3D growth assay (CyQUANT) in MIAPACA2 and PATU-8902 cells; format: cell-based; settings: 3 days
Procedure: (§1) 2,500 cells were seeded into a low-attachment 96-well plate containing DMEM+10% dialysed FBS and 3% Matrigel. […] To measure 3D growth with the CyQUANT Cell Proliferation Assay kit, plates were frozen at −80° C., thawed at room temperature, and equal volumes of 2× CyQUANT reagent+lysis buffer was added to the wells. As a control, wells containing medium and no cells were used as blanks. CyQUANT measurements were performed as described in the manufacturer's instructions.
as §1, with “2×CyQUANT” for “2× CyQUANT”, “Wells” for “As a control, wells”, “blanks.” for “blanks. CyQUANT measurements were performed as described in the manufacturer's instructions.”

cells = test: Cellular uptake of 4-HMA and incorporation into CoQ10; format: cell-based
HPDL = molecular target: T3, HPDL (Homo sapiens, UniProt Q96IR7); test: Fluorescence based thermal shift assay (FTS) on purified HPDL; format: binding; settings: 10 μM compound, 1 μM HPDL
T3 construct: His tag; made in house; host or cells: expiSF9 insect cells (inferred: the only HPDL preparation described)
T3 sequence (Q96IR7 1-371): T1 sequence (Q96IR7 1-371)
Procedure: This experiment evaluates an FDA approved library of small molecules by thermal shift in order to identify binders of HPDL. Fluorescence based thermal shift assay (FTS) was conducted on Bio-Rad real time PCR detection system. A total of 20 μL/well solution was prepared containing 1 μM HPDL, 2× fluorescent dye (Applied Biosystems, Life Technologies) and small molecules at […] concentration in buffer (50 mM HEPES pH 7.5 and 20 μM FeSO4). The plate was heated at 1% of ramp rate (−1.5° C./min) from 25 to 95° C., and Rox was selected as reporter for detection of fluorescence intensity. The melting temperature was recorded for every compound and compared to the reference HPDL melting temperature.
This experiment evaluates if COX inhibition is responsible for the decrease of cell growth in 3D. The ability of aspirin, another COX inhibitor, to bind HPDL was evaluated using thermal shift assay. Fluorescence based thermal shift assay (FTS) was conducted on Bio-Rad real time PCR detection system. […] The plate was heated at 1% of ramp rate (˜1.5° C./min) from 25 to 95° C., and Rox was selected as reporter for detection of fluorescence intensity. The melting temperature was recorded for every compound and compared to the reference HPDL melting temperature.

pIC50 [1]: 4.38
SMILES: NCCc1ccc(O)c(O)c1 [D00005 row 2, dopamine]

SMILES: CC(C)Cc1ccc(C(C)C(=O)O)cc1 (stereo not drawn) [ibuprofen]
pup development and survival (C57BL/6 pups; ibuprofen 200 mg/kg daily oral gavage, started at 3, 5 and 10 days): affects the development of pups; also recorded: ibuprofen-induced lethality in pups
sensitivity of 3D growth to ibuprofen on HPDL deletion [2]: HPDL deletion reduces sensitivity to ibuprofen treatment in 3D
orthotopic pancreatic tumor growth (tumor weight) ([3]; ibuprofen 100 mg/kg in drinking water): affects the growth of HPDL-dependent PDAC orthotopic xenografts
compound amount at 50% activity level (rank among the four dose-response curves) (His-tagged HPDL): least
3D cell growth (MIAPACA2 cells): affects cell growth of HPDL-dependent cell lines in 3D
3D cell growth ([4]; ibuprofen 100 uM added daily): selectively decreases cell growth of HPDL-dependent cell lines in 3D

SMILES: O=C(O)C(O)c1ccc(O)cc1 (stereo not drawn) [4HMA, 4-hydroxymandelate]
rescue of ibuprofen-induced lethality (C57BL/6 pups; 4HMA 10 mg/kg with ibuprofen 200 mg/kg daily oral gavage): rescues ibuprofen-induced lethality in pups
uptake by cells and incorporation into CoQ10 (cells): readily taken up by cells and incorporated into CoQ10
rescue of ibuprofen-induced decrease of xenograft growth ([3]; 4HMA 10 mg/kg with ibuprofen 100 mg/kg in drinking water): can rescue this decrease
rescue of ibuprofen-induced decrease of 3D cell growth ([4]; ibuprofen 100 uM and 4HMA 1 mM added daily): rescues ibuprofen-induced decreases cell growth in 3D

SMILES: CC(C)Cc1ccc(C(C)C(=O)O)cc1 (stereo not drawn) [D00005 row 4, ibuprofen]
pIC50 [1]: 4.78

pIC50 [1]: < 4.00
SMILES: CC(C)(O)c1ccccc1CC[C@@H](SCC1(CC(=O)O)CC1)c1cccc(/C=C/c2ccc3ccc(Cl)cc3n2)c1 [D00005 row 1, montelukast]

pIC50 [1]: < 4.00
SMILES: C[C@](N)(Cc1ccc(O)c(O)c1)C(=O)O [D00005 row 3, methyldopa]

HPDL binding by thermal shift (HPDL): does not act HPDL binder
SMILES: CC(=O)Oc1ccccc1C(=O)O [aspirin]
3D cell growth (MIAPACA2 cells): does not affect cell growth of HPDL-dependent cell lines

inhibition of HPDL activity (His-tagged HPDL; 12 ng/μL HPDL, 10 μM HPPA, 1 h at 37° C., various inhibitor concentrations): inhibit the dioxygenase HPDL
compound amount at 50% activity level (rank among the four dose-response curves) (His-tagged HPDL): second least
SMILES: NCCc1ccc(O)c(O)c1 [dopamine]
